Results taken from the supplement of paper PMC6411743.

What was measured:
guanosine triphosphate = compound: Nc1nc2c(ncn2[C@@H]2O[C@H](COP(=O)(O)OP(=O)(O)OP(=O)(O)O)[C@@H](O)[C@H]2O)c(=O)[nH]1 [guanosine triphosphate]; test: pEC50 of GTP-induced change in protein thermal stability (2D-TPP)
Method in brief: (§1)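 Each of three independent experiments used Jurkat crude lysate given five concentrations including vehicle (10 min, room temperature), followed by 3 min at one of 12 temperatures from 42 to 63.9 °C and NP40 with benzonase (60 min, 4 °C). TMT LC-MS/MS quantified soluble protein after ultracentrifugation, expressed as fold changes against vehicle at each temperature with median normalisation. For pEC50, dose-response curves were fitted per replicate over adjacent temperature pairs, and hits were called through permutation-based false discovery rate control.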

adenosine triphosphate = compound: Nc1ncnc2c1ncn2[C@@H]1O[C@H](COP(=O)(O)OP(=O)(O)OP(=O)(O)O)[C@@H](O)[C@H]1O [adenosine triphosphate]; test: pEC50 of ATP-induced change in protein thermal stability (2D-TPP)
Method in brief: as §1
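For pEC50 of ATP-induced change in protein thermal stability (2D-TPP) in this document: lysate dosed with Na-ATP at 0 0.005 0.05 0.5 and 2 mM.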

UniProt Q9BW83, sequence (Q9BW83 whole entry): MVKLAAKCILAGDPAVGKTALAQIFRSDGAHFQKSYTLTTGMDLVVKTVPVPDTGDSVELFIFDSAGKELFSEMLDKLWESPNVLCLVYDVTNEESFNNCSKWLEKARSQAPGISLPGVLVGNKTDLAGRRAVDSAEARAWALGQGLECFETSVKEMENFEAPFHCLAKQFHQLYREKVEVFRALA
UniProt P07437, sequence (P07437 whole entry): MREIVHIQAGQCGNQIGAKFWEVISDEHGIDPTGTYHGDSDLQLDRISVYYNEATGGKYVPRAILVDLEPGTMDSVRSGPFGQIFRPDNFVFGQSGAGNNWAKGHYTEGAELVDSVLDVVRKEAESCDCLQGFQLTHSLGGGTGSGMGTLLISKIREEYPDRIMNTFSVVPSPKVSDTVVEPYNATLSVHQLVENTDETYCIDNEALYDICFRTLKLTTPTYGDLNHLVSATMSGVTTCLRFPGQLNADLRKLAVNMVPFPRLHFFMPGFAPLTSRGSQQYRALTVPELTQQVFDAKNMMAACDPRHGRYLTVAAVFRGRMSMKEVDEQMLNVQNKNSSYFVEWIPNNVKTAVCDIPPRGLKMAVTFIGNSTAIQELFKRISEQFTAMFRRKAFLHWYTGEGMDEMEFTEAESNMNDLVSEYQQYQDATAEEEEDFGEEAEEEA
UniProt P61224, sequence (P61224 whole entry): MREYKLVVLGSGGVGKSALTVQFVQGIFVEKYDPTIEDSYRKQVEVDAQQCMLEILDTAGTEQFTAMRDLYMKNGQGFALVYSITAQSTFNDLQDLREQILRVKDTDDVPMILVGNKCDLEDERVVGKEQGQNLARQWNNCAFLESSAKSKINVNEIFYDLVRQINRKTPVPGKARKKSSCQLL
UniProt P61225, sequence (P61225 whole entry): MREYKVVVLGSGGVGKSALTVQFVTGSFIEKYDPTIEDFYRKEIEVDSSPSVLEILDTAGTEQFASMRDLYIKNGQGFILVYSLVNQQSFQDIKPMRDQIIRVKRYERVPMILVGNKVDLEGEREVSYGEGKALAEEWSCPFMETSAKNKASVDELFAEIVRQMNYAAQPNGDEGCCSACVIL
UniProt O75323, sequence (O75323 whole entry): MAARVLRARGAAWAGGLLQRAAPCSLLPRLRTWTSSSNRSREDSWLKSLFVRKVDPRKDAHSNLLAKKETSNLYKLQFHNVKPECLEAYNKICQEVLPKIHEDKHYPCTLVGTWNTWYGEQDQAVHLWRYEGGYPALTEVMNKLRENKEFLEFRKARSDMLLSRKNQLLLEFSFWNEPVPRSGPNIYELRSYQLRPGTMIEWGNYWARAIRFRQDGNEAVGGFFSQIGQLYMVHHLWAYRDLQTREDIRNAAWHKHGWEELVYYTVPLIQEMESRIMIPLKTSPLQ
UniProt Q15286, sequence (Q15286 whole entry): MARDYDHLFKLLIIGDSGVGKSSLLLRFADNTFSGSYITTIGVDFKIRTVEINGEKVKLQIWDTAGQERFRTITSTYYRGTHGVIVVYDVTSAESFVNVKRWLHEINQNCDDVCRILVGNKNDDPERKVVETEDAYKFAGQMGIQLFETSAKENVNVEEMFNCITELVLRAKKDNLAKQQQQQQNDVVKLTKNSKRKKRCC
UniProt P22314, sequence (P22314 whole entry): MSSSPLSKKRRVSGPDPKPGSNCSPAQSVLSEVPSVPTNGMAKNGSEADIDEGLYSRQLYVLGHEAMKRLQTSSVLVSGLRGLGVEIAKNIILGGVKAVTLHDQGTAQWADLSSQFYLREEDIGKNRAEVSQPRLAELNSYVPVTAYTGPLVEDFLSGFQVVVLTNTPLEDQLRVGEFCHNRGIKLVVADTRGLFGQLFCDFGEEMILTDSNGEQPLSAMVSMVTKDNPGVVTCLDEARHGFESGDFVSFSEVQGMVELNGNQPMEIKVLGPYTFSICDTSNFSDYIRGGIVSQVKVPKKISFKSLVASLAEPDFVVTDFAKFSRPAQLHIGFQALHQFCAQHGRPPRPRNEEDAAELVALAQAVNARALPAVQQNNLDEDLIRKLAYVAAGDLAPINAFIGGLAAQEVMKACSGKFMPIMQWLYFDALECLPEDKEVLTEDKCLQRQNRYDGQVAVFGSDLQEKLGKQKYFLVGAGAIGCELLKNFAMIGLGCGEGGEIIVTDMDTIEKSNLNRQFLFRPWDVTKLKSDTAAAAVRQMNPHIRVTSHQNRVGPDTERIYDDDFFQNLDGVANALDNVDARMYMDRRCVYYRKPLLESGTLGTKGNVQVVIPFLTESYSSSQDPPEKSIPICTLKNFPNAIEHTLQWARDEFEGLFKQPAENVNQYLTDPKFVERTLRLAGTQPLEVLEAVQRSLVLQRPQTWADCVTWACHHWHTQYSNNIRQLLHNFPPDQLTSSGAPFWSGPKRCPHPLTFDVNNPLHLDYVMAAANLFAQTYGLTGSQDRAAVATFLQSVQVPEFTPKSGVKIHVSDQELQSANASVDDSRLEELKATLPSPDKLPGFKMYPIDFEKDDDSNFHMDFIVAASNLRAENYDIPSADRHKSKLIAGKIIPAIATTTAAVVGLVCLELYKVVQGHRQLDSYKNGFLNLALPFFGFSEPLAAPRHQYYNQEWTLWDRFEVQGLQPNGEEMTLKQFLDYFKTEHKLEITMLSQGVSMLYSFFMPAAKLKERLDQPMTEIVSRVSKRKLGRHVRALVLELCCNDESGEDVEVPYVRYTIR
UniProt Q712K3, sequence (Q712K3 whole entry): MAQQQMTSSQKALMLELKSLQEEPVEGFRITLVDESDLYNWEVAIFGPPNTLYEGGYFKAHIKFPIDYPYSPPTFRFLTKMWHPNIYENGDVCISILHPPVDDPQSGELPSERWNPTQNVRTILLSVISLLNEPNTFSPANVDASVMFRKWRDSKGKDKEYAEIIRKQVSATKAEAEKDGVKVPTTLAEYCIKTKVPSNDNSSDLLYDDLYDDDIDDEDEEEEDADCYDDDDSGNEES
UniProt Q6XQN6, sequence (Q6XQN6 whole entry): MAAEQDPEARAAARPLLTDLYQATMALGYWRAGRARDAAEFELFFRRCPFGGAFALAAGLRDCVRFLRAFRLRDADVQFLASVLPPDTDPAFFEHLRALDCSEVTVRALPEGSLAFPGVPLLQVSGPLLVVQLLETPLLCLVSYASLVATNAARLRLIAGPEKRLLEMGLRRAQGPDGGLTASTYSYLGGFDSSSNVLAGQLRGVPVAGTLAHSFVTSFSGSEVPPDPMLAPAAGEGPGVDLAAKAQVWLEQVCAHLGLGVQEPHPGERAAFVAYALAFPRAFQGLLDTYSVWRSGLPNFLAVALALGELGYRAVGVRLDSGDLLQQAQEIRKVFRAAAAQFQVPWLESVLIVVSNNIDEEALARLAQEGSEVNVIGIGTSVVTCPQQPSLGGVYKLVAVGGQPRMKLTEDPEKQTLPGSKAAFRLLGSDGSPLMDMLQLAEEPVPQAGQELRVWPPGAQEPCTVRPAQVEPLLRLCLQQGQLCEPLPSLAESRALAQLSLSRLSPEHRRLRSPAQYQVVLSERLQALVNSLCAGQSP
UniProt Q9Y5L0, sequence (Q9Y5L0 whole entry): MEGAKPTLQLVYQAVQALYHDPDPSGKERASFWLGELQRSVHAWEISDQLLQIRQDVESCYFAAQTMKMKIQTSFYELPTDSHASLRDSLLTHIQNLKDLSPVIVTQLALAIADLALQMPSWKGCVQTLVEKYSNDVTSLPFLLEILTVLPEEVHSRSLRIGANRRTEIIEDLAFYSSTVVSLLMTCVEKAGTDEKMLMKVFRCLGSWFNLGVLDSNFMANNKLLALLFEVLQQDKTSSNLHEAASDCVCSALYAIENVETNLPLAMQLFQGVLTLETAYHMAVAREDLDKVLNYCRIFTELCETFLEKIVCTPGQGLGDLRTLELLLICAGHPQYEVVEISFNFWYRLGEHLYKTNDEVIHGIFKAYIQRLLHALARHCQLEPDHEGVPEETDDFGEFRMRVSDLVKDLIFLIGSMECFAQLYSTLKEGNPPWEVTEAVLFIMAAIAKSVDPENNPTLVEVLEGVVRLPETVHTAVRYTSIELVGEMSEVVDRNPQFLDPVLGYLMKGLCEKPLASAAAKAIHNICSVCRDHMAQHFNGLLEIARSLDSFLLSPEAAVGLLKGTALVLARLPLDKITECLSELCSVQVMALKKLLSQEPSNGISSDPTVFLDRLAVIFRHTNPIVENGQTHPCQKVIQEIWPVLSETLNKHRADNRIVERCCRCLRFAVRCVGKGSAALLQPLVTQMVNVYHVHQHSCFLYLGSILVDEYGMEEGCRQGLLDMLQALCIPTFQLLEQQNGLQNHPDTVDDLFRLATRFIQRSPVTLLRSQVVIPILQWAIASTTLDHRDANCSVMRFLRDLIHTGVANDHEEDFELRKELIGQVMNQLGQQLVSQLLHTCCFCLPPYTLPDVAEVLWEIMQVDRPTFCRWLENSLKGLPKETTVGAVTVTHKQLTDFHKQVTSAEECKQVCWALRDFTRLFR
UniProt P62333, sequence (P62333 whole entry): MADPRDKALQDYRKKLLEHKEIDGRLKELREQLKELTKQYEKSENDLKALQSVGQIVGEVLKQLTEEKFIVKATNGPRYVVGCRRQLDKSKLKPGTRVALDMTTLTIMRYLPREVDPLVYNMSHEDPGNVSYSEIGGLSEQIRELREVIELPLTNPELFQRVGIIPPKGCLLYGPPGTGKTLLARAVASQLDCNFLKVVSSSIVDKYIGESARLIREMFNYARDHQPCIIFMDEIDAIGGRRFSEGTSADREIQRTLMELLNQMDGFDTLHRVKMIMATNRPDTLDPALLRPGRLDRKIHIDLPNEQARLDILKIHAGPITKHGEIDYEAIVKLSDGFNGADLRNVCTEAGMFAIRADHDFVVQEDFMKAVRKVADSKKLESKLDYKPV
UniProt Q96S44, sequence (Q96S44 whole entry): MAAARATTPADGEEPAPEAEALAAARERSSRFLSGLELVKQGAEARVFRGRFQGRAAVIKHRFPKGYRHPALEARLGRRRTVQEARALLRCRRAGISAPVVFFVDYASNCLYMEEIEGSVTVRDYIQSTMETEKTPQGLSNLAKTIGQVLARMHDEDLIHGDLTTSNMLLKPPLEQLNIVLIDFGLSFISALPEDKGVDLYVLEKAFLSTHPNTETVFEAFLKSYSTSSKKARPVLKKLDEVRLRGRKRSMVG

pEC50 (guanosine triphosphate)	pEC50 (adenosine triphosphate)	Target
3.48	3.26	TBRG4 (effect direction: stabilized) (UniProt Q969Z0)
3.58	3.46	TP53RK (effect direction: stabilized) (UniProt Q96S44)
4.06	3.17	TUBG1 (effect direction: stabilized) (UniProt P23258)
4.08	4.08	UniProt O00442 (effect direction: stabilized)
4.05	4.13	UniProt O43776 (effect direction: stabilized)
3.81	4.01	UniProt P08240 (effect direction: stabilized)
3.78	3.79	UniProt P45985 (effect direction: stabilized)
4.05	3.48	UniProt P61225 (effect direction: stabilized)
4.08	3.42	UniProt P62070 (effect direction: stabilized)
3.93	4.21	UniProt Q6XQN6 (effect direction: stabilized)
3.96	3.12	UniProt Q9BW83 (effect direction: stabilized)
3.86	4.18	UniProt Q712K3 (effect direction: stabilized)
3.92	4.33	VPS4B (effect direction: stabilized) (UniProt O75351)

The next lines start with the target.

Target	pEC50 (guanosine triphosphate)	pEC50 (adenosine triphosphate)
THUMPD1 (effect direction: stabilized) (UniProt Q9NXG2)	3.86	3.08
TNPO1 (effect direction: stabilized) (UniProt Q92973)	3.68	2.89
TNPO2 (effect direction: stabilized) (UniProt O14787)	< 3.3	< 2.7
TNPO3 (effect direction: stabilized) (UniProt Q9Y5L0)	3.76	3.08
UAP1L1 (effect direction: stabilized) (UniProt Q3KQV9)	3.38	3.13
UBA1 (effect direction: stabilized) (UniProt P22314)	3.79	4.18
UCK2 (effect direction: stabilized) (UniProt Q9BZX2)	3.9	3.28
UniProt O75323 (effect direction: stabilized)	3.66	3.94
UniProt P07437 (effect direction: stabilized)	4.05	3.35
UniProt P17252 (effect direction: stabilized)	4.06	4.25
UniProt P17612 (effect direction: stabilized)	3.72	3.82
UniProt P19784 (effect direction: stabilized)	3.92	4.12
UniProt P36542 (effect direction: stabilized)	4.12	4.25
UniProt P48047 (effect direction: stabilized)	3.9	3.53
UniProt P52564 (effect direction: stabilized)	3.9	4
UniProt P59998 (effect direction: stabilized)	4.03	3.9
UniProt P61026 (effect direction: stabilized)	4.35	3.83
UniProt P61086 (effect direction: stabilized)	3.76	4.05
UniProt P61106 (effect direction: stabilized)	4.33	3.66
UniProt P61160 (effect direction: stabilized)	3.99	4.25
UniProt P61224 (effect direction: stabilized)	4.25	3.9
UniProt P62333 (effect direction: stabilized)	3.75	4.38
UniProt P62820 (effect direction: stabilized)	4.31	3.74
UniProt P68363 (effect direction: stabilized)	3.88	2.98
UniProt Q01130 (effect direction: stabilized)	3.56	3.23
UniProt Q15286 (effect direction: stabilized)	4.35	3.53
UniProt Q16512 (effect direction: stabilized)	4.22	3.69
VARS (effect direction: stabilized) (UniProt P26640)	3.79	3.57
